Experimental data taken from patent US20070134814A1, “Methods and compositions for the detection of calcifying nano-particles, identification and quantification of associated proteins thereon, and correlation to disease” (priority 2005, published 2007).

Test system: freshly collected human blood
Test: Whole blood clotting slide test
Settings: 10 μl solution added to plain glass slide before blood
From the text: The method allows for measuring changes in the clotting time induced by contact with foreign surfaces, i.e. plain glass or coated glass, and for studying the effects of drugs on the clotting induced by foreign surface.
Venous blood was collected with venipuncture from 19 random volunteers participating in CNP epidemiological study (Ethical Committee Approval, Kuopio University). Volunteers signed an informed consent. Blood was collected with venipuncture in siliconized glass serum tubes, EDTA plasma tubes or citrate plasma tubes (Terumo), and was tested immediately after collection for whole blood clotting time on different test platforms.
200 μl of freshly drawn blood was added to pre-coated or plain glass slides which were put on a tilting shaker 15 tilts/minute at room temperature until formation of a solid clot was observed as “frozen droplet”. Experiments were carried out usually in triplicate to determine reproducibility of tests. CV % for the triplicate tests were less than 6.81% (CNP-coated slide, n=13), 8.79% (apatite-coated slide, n=15) and 10.37% (non-treated control slide, n=15). Clotting time results were analyzed by Bonferroni (Dunn) t Test (Table 1).
Therefore, to study the effects of apatite on clotting, a whole blood clotting slide test was developed. […]

O=C([O-])CN(CCN(CC(=O)[O-])CC(=O)[O-])CC(=O)[O-].[Ca+2].[Na+].[Na+] [Calcium EDTA]
effect on clotting time: did not affect the clotting time

CC(O)(P(=O)(O)O)P(=O)(O)O [etidronate]
effect on clotting time: did not affect the clotting time
